Peptide text beside a SMILES is read from it.
Test: LC-MS analysis of saliva samples of panelists chewing the gums
Type: in vivo
Procedure: 3 panelists were given various samples of chewing gum prepared above and instructed to chew the gums for 60 minutes. At various intervals, a saliva sample was taken from each panelist, diluted 50 times in water and then analysed by standard LC-MS to confirm the amount of sweetening component remaining in the mouth.

[1] = encapsulated form in chewing gum

| Compound | release profile in saliva (in words) [1] | effect of encapsulation on the release profile compared to the unencapsulated form (chewing gum, saliva) | release profile in saliva (in words) (unencapsulated form in chewing gum) |
| --- | --- | --- | --- |
| COC(=O)[C@H](Cc1ccccc1)NC(=O)[C@@H](N)CC(=O)O [aspartame] (H-Asp-Phe-OMe) | releasing at a surprisingly stable rate for up to 40 minutes | – | – |
| CC1=CC(=O)[N-]S(=O)(=O)O1.[K+] [Acesulfame K] | – | little effect | – |
| OC[C@H]1O[C@H](O[C@]2(CCl)O[C@H](CCl)[C@@H](O)[C@@H]2O)[C@H](O)[C@@H](O)[C@H]1Cl [sucralose] | remains remarkably stable for at least until 20 minutes | – | diminishes rapidly almost immediately |
